Laboratory results: patent US20220162191A1, “SMALL MOLECULE MODULATORS OF IL-17” (LEO PHARMA A/S, priority 2019, published 2022)

Molecular target: T1, human IL-17AA (Homo sapiens, UniProt Q16552)
T1 construct: host or cells: HEK (human embryonic kidney) cells
T1 sequence (Q16552 24-155) 1: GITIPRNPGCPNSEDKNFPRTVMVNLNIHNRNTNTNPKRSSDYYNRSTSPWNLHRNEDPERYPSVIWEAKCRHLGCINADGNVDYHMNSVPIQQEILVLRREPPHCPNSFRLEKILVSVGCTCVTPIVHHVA
T1 sequence (Q16552 24-155) 2: T1 sequence (Q16552 24-155) 1
Experiment: IL-8 release assay in human epithelial keratinocytes adult (HEKa)
Type: cell-based
Conditions: 3 ng/ml human IL-17AA + 10 ng/ml human TNFalpha, 68-72 h, IL-8 by HTRF, read-out: Rel EC50 L-8 release assay
Method in brief: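 Adult human keratinocytes in Epilife with HKGS minus hydrocortisone, treated with compound then stimulated with final 3 ng/ml HEK-derived human IL-17AA plus 10 ng/ml TNF-alpha for 68–72 h at 37 °C; TNF-alpha alone defines 100% inhibition. Secreted IL-8 by HTRF; relative IC50 and Emax from four-parameter fits.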

EC50 | Structure (SMILES)
> 1000 nM | CC(C)n1cc(-c2ccc(Cl)c(C[C@H](NC(=O)C3(F)CC3)C(=O)Nc3ccc(-c4nncn4C)cc3)c2)ccc1=O [Example 92, N-[(1S)-1-[[2-chloro-5-(1-isopropyl-6-oxo-3-pyridyl)phenyl]methyl]-2-[4-(4-methyl-1,2,4-triazol-3-yl)anilino]-2-oxo-ethyl]-1-fluoro-cyclopropanecarboxamide]
100 to 1000 nM | CC(C)n1cc(-c2ccc(Cl)c(C[C@H](NC(=O)C3(F)CC3)C(=O)Nc3ccc(-c4cncn4C)c(O)c3)c2)ccc1=O [Example 133, N-[(1S)-1-[[2-chloro-5-(1-isopropyl-6-oxo-3-pyridyl)phenyl]methyl]-2-[3-hydroxy-4-(3-methylimidazol-4-yl)anilino]-2-oxo-ethyl]-1-fluoro-cyclopropanecarboxamide]
100 to 1000 nM | Cn1cnnc1-c1ccc(NC(=O)C(Cc2cc(-c3cccc(OC(F)(F)F)c3)ccc2Cl)NC(=O)c2ccnn2C)cc1 (centres unmarked) [Example 111, N-[1-[[2-chloro-5-[3-(trifluoromethoxy)phenyl]phenyl]methyl]-2-[4-(4-methyl-1,2,4-triazol-3-yl)anilino]-2-oxo-ethyl]-2-methyl-pyrazole-3-carboxamide]
< 100 nM | CN(CC1CC1)c1cc(-c2ccc(Cl)c(CC(NC(=O)c3ccnn3C)C(=O)Nc3ccc(-c4cncn4C)cc3)c2)ccn1 (centres unmarked) [Example 153, N-[1-[[2-chloro-5-[2-[cyclopropylmethyl(methyl)amino]-4-pyridyl]phenyl]methyl]-2-[4-(3-methylimidazol-4-yl)anilino]-2-oxo-ethyl]-2-methyl-pyrazole-3-carboxamide]
> 1000 nM | CC(C)n1cc(-c2ccc(Cl)c(C[C@H](NC(=O)[C@@H]3CC3(F)F)C(=O)Nc3ccc(-c4nncn4C)cc3)c2)ccc1=O [Example 287, (1S)-N-[(1S)-1-[[2-chloro-5-(1-isopropyl-6-oxo-3-pyridyl)phenyl]methyl]-2-[4-(4-methyl-1,2,4-triazol-3-yl)anilino]-2-oxo-ethyl]-2,2-difluoro-cyclopropanecarboxamide]
> 1000 nM | CC(C)n1cc(-c2ccc(Cl)c(C[C@H](NC(=O)C3CCC3)C(=O)Nc3ccc(-c4nncn4C)cc3)c2)ccc1=O [Example 293, N-[(1S)-1-[[2-chloro-5-(1-isopropyl-6-oxo-3-pyridyl)phenyl]methyl]-2-[4-(4-methyl-1,2,4-triazol-3-yl)anilino]-2-oxo-ethyl]cyclobutanecarboxamide]
100 to 1000 nM | Cc1cnn(C)c1-c1ccc(NC(=O)[C@H](Cc2cc(-c3ccc(=O)n(C(C)C)c3)ccc2Cl)NC(=O)c2ccon2)cc1 [Example 337, N-[(1S)-1-[[2-chloro-5-(1-isopropyl-6-oxo-3-pyridyl)phenyl]methyl]-2-[4-(2,4-dimethylpyrazol-3-yl)anilino]-2-oxo-ethyl]isoxazole-3-carboxamide]
100 to 1000 nM | Cn1cncc1-c1ccc(NC(=O)C(Cc2cc(-c3ccnc(OC(F)F)c3)ccc2Cl)NC(=O)c2ccnn2C)cc1 (centres unmarked) [Example 161, N-[1-[[2-chloro-5-[2-(difluoromethoxy)-4-pyridyl]phenyl]methyl]-2-[4-(3-methylimidazol-4-yl)anilino]-2-oxo-ethyl]-2-methyl-pyrazole-3-carboxamide]

Continued, compound first:

Structure (SMILES) | EC50
Cc1ncn(C)c1-c1ccc(NC(=O)[C@H](Cc2cc(-c3cnn(C(C)(C)C#N)c3)ccc2Cl)NC(=O)c2ccnn2C)cc1 [Example 204, N-[(1S)-1-[[2-chloro-5-[1-(1-cyano-1-methyl-ethyl)pyrazol-4-yl]phenyl]methyl]-2-[4-(3,5-dimethylimidazol-4-yl)anilino]-2-oxo-ethyl]-2-methyl-pyrazole-3-carboxamide] | 100 to 1000 nM
Cc1nccn1-c1ccc(NC(=O)[C@@H](NC(=O)C2(F)CC2)[C@@H]2CCCc3ccc(-c4ccnc(N5C[C@H]6C[C@@H]5CO6)c4)cc32)cc1 [Example 401, 1-fluoro-N-[(1S)-2-[4-(2-methylimidazol-1-yl)anilino]-1-[(1R)-7-[2-[(1R,4R)-2-oxa-5-azabicyclo[2.2.1]heptan-5-yl]-4-pyridyl]tetralin-1-yl]-2-oxo-ethyl]cyclopropanecarboxamide] | 100 to 1000 nM
Cc1n[nH]c(C)c1-c1ccc(NC(=O)[C@@H](NC(=O)c2ccnn2C)[C@@H]2CCc3ccc(-c4ccc5c(c4)CCNC5)cc32)cc1 [Example 17, N-[(1S)-2-[4-(3,5-dimethyl-1H-pyrazol-4-yl)anilino]-2-oxo-1-[(1R)-6-(1,2,3,4-tetrahydroisoquinolin-6-yl)indan-1-yl]ethyl]-2-methyl-pyrazole-3-carboxamide] | < 100 nM
Cc1n[nH]c(C)c1-c1ccc(NC(=O)[C@@H](NC(=O)C2(F)CC2)[C@@H]2CCc3ccc(-c4cc(N5C[C@@H]6C[C@H]5CO6)ncn4)cc32)cc1 [Example 356, N-[(1S)-2-[4-(3,5-dimethyl-1H-pyrazol-4-yl)anilino]-1-[(1R)-6-[6-[(1S,4S)-2-oxa-5-azabicyclo[2.2.1]heptan-5-yl]pyrimidin-4-yl]indan-1-yl]-2-oxo-ethyl]-1-fluoro-cyclopropanecarboxamide] | 100 to 1000 nM
Cn1cncc1-c1ccc(NC(=O)C(Cc2cc(-c3ccnc(N4CCCC4)c3)ccc2Cl)NC(=O)c2ccnn2C)cc1 (centres unmarked) [Example 146, N-[1-[[2-chloro-5-(2-pyrrolidin-1-yl-4-pyridyl)phenyl]methyl]-2-[4-(3-methylimidazol-4-yl)anilino]-2-oxo-ethyl]-2-methyl-pyrazole-3-carboxamide] | 100 to 1000 nM
Cc1cnn(C)c1-c1ccc(NC(=O)[C@@H](NC(=O)C2(F)CC2)[C@@H]2CCc3ccc(-c4cnnc(C5CC5)c4)cc32)cc1 [Example 385, N-[(1S)-1-[(1R)-6-(6-cyclopropylpyridazin-4-yl)indan-1-yl]-2-[4-(2,4-dimethylpyrazol-3-yl)anilino]-2-oxo-ethyl]-1-fluoro-cyclopropanecarboxamide] | 100 to 1000 nM
